In ChEMBL document CHEMBL1152440, “Discovering potent small molecule inhibitors of cyclophilin A using de novo drug design approach” (J Med Chem, 2009):

Target: Peptidyl-prolyl cis-trans isomerase A (Homo sapiens, UniProt P62937)
Sequence (P62937 whole entry): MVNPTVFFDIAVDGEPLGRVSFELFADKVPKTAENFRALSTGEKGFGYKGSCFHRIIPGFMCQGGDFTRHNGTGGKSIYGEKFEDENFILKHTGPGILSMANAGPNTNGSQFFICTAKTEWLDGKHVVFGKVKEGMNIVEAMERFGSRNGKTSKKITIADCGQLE
Description: Inhibition of peptidyl-prolyl isomerase activity of Cyclophilin A

IC50, Not Active:
COc1cccc(F)c1C(=O)NC(=O)NC1c2ccccc2-c2ccccc21
O=C(NC(=O)c1c(F)cccc1OCc1ccccc1)NC1c2ccccc2-c2ccccc21
O=C(NCCc1ccccc1)NC(=O)c1c(O)cccc1O
O=C(NC(=O)c1ccccc1)NC1c2ccccc2-c2ccccc21
Cc1ccccc1C(=O)NC(=O)NC1c2ccccc2-c2ccccc21
